One data set is described as follows: method code SF-AS, from DOI: 10.1021/es00166a009, PMID: 22195514.
Details: not given
With `Cc1ccc([N+](=O)[O-])c(O)c1`, the logP stood at 2.31.

Staying with this data set, now noted: pH 1.5.
Compound `O=[N+]([O-])c1cc(-c2ccccc2)ccc1O` yielded a logD of 3.71.

`Cc1ccc(O)c([N+](=O)[O-])c1` came in with a logD of 2.37.

`CCC(C)c1ccc(O)c([N+](=O)[O-])c1` (stereo unspecified) gave a logD of 3.84.

In turn, `O=Cc1ccc(O)c([N+](=O)[O-])c1` gave a pH-dependent lipophilicity (logD) of 1.48.

Compound `O=[N+]([O-])c1cc(C(F)(F)F)ccc1O` registered a log distribution coefficient (logD) of 2.34.

`Cc1cc(O)c([N+](=O)[O-])cc1Cl`: the logD was 2.93.

Consider `COc1ccc(O)c([N+](=O)[O-])c1`, for which the pH-dependent lipophilicity (logD) was determined as 2.02.

Turning to `O=[N+]([O-])c1ccccc1O`, the pH-dependent lipophilicity (logD) was 1.89. The logD values of the last two compounds are within 0.2 log units of each other.

The compound `O=[N+]([O-])c1ccc(F)cc1O` gave a log distribution coefficient (logD) of 1.91.

A short description of a further data set: method code SF-AS,RC, from DOI: 10.1021/es00166a009, PMID: 22195514. As to conditions: pH 1.5.
`Cc1cccc(O)c1[N+](=O)[O-]` yielded a pH-dependent lipophilicity (logD) of 2.29.

The values are drawn from the SangsterLogP compilation.
